Assays:
Assay in all cases: relative viability (nuclei count vs DMSO), 5 days (fraction); higher = more cells survive
BX 795 + Foretinib = compound: O=C(NCCCNc1nc(Nc2cccc(NC(=O)N3CCCC3)c2)ncc1I)c1cccs1 [BX 795] + COc1cc2c(Oc3ccc(NC(=O)C4(C(=O)Nc5ccc(F)cc5)CC4)cc3F)ccnc2cc1OCCCN1CCOCC1 [Foretinib] (partner 0.25 µM)
How it was run: (§1)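 A single step with final 0.05% Triton X-100, 1% formaldehyde and 1 ug/ml Hoechst fixed the cells and stained nuclei 5 days after treatment. Lung cancer cell lines in 1536-well plates had been treated by pin tool the day after seeding with one drug alone or a fixed anchor-drug dose plus five library-drug doses (not always all listed) in √10 steps, and nuclei were counted on 4× images. Relative viability is the ratio of nuclei in treated wells to nuclei in vehicle wells, taken as the median of duplicate plates.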

BX 795 + Vorinostat = compound: O=C(NCCCNc1nc(Nc2cccc(NC(=O)N3CCCC3)c2)ncc1I)c1cccs1 [BX 795] + O=C(CCCCCCC(=O)Nc1ccccc1)NO [Vorinostat] (partner 1 µM)
How it was run: as §1

BX 795 + Palbociclib = compound: O=C(NCCCNc1nc(Nc2cccc(NC(=O)N3CCCC3)c2)ncc1I)c1cccs1 [BX 795] + CC(=O)c1c(C)c2cnc(Nc3ccc(N4CCNCC4)cn3)nc2n(C2CCCC2)c1=O [Palbociclib] (partner 0.5 µM)
How it was run: as §1

BX 795 + Pemetrexed = compound: O=C(NCCCNc1nc(Nc2cccc(NC(=O)N3CCCC3)c2)ncc1I)c1cccs1 [BX 795] + Nc1nc2[nH]cc(CCc3ccc(C(=O)N[C@@H](CCC(=O)O)C(=O)O)cc3)c2c(=O)[nH]1 [Pemetrexed] (partner 0.2 µM)
How it was run: as §1

BX 795 + Luminespib = compound: O=C(NCCCNc1nc(Nc2cccc(NC(=O)N3CCCC3)c2)ncc1I)c1cccs1 [BX 795] + CCNC(=O)c1noc(-c2cc(C(C)C)c(O)cc2O)c1-c1ccc(CN2CCOCC2)cc1 [Luminespib] (partner 0.01 µM)
How it was run: as §1

| Cell Line | relative viability (BX 795 + Foretinib; first compound 0.04 µM) | relative viability (BX 795 + Foretinib; first compound 0.1265 µM) | relative viability (BX 795 + Foretinib; first compound 0.4 µM) | relative viability (BX 795 + Foretinib; first compound 1.265 µM) | relative viability (BX 795 + Vorinostat; first compound 0.04 µM) | relative viability (BX 795 + Vorinostat; first compound 0.1265 µM) | relative viability (BX 795 + Vorinostat; first compound 0.4 µM) | relative viability (BX 795 + Vorinostat; first compound 1.265 µM) | relative viability (BX 795 + Palbociclib; first compound 0.04 µM) | relative viability (BX 795 + Palbociclib; first compound 0.1265 µM) | relative viability (BX 795 + Palbociclib; first compound 0.4 µM) | relative viability (BX 795 + Palbociclib; first compound 1.265 µM) | relative viability (BX 795 + Pemetrexed; first compound 0.04 µM) | relative viability (BX 795 + Pemetrexed; first compound 0.1265 µM) | relative viability (BX 795 + Pemetrexed; first compound 0.4 µM) | relative viability (BX 795 + Pemetrexed; first compound 1.265 µM) | relative viability (BX 795 + Luminespib; first compound 0.04 µM) | relative viability (BX 795 + Luminespib; first compound 0.1265 µM) | relative viability (BX 795 + Luminespib; first compound 0.4 µM) | relative viability (BX 795 + Luminespib; first compound 1.265 µM) |
| --- | --- | --- | --- | --- | --- | --- | --- | --- | --- | --- | --- | --- | --- | --- | --- | --- | --- | --- | --- | --- |
| NCI-H661 | 1.09 | 1.04 | 1.03 | 0.908 | 0.824 | 0.862 | 0.832 | 0.449 | 0.463 | 0.429 | 0.429 | 0.444 | 0.855 | 0.98 | 0.521 | 0.784 | 1 | 0.951 | 0.828 | 0.71 |
| LC-2-ad | 1.12 | 0.867 | 0.981 | 0.808 | 0.755 | 0.759 | 0.595 | 0.37 | 0.476 | 0.493 | 0.408 | 0.483 | 0.267 | 0.288 | 0.25 | 0.263 | 1.16 | 1.03 | 0.938 | 0.662 |
| SW 900 | 0.938 | 1.04 | 0.968 | 0.569 | 0.482 | – | 0.611 | 0.604 | 0.512 | – | 0.67 | 0.593 | 0.488 | – | 0.469 | 0.455 | 0.17 | 0.157 | 0.19 | 0.169 |
| LU99A | 0.808 | 0.901 | 0.793 | 0.602 | 0.472 | 0.485 | 0.37 | 0.363 | 0.434 | 0.406 | 0.36 | 0.277 | 0.148 | 0.197 | 0.128 | 0.209 | 0.288 | 0.278 | 0.226 | 0.294 |
| UMC-11 | 0.85 | 1.06 | 0.805 | 0.168 | 0.422 | 0.308 | 0.354 | 0.348 | 0.301 | 0.355 | 0.306 | 0.333 | 0.826 | 0.749 | 0.736 | 0.453 | 0.751 | 1.06 | 1.07 | 0.271 |
| NCI-H2405 | 1.08 | 1.06 | 1.02 | 0.935 | 1.01 | 0.809 | 0.951 | 0.821 | 0.535 | 0.537 | 0.384 | 0.566 | 1.06 | 1.02 | 0.996 | 1.05 | 0.718 | 0.714 | 0.573 | 0.585 |
| HARA | 0.914 | 0.935 | 0.849 | 0.31 | 0.523 | 0.595 | 0.447 | 0.482 | 0.237 | 0.183 | 0.201 | 0.208 | 0.21 | 0.227 | 0.195 | 0.227 | 0.588 | 0.838 | 0.907 | 0.656 |
| NCI-H322M | 0.949 | 1.17 | 0.967 | 1.33 | 0.981 | 0.884 | 1.36 | 1.18 | 0.486 | 0.468 | 0.571 | 0.587 | 0.591 | 0.606 | 0.603 | 0.672 | 0.589 | 0.915 | 0.266 | 1.03 |
| EPLC-272H | 0.739 | 0.721 | 0.653 | 0.527 | 0.533 | 0.472 | 0.354 | 0.219 | 0.352 | 0.419 | 0.317 | 0.387 | 0.272 | 0.294 | 0.123 | 0.21 | 0.342 | 0.187 | 0.158 | 0.292 |
| NCI-H3122 | 1.01 | 1.04 | 1 | 0.992 | 0.715 | 1.03 | 1.11 | 0.679 | 0.182 | 0.221 | 0.208 | 0.226 | 0.172 | 0.207 | 0.141 | 0.182 | 0.0821 | 0.114 | 0.0793 | 0.0891 |
| NCI-H1944 | 0.996 | 0.888 | 1.06 | 0.802 | 0.674 | 0.637 | 0.575 | 0.475 | 0.381 | 0.33 | 0.411 | 0.325 | 0.616 | 0.577 | 0.41 | 0.606 | 0.739 | 0.729 | 0.758 | 0.595 |
| NCI-H2228 | 1.05 | 0.967 | 1.13 | 0.625 | 0.761 | 0.898 | 0.63 | 0.556 | 1.07 | 0.787 | 0.974 | 0.658 | 0.329 | 0.331 | 0.268 | 0.281 | 0.104 | 0.127 | 0.122 | 0.169 |
| NCI-H520 | 0.555 | 0.772 | 0.832 | 0.365 | 0.69 | 0.721 | 0.768 | 0.381 | 0.189 | 0.263 | 0.187 | 0.177 | 0.393 | 0.7 | 0.341 | 0.335 | 0.211 | 0.2 | 0.225 | 0.277 |
| 201T | 1.2 | 1.13 | 0.952 | 1.21 | 1.06 | 0.991 | 1.23 | 1.12 | 0.333 | 0.34 | 0.376 | 0.405 | 0.302 | 0.305 | 0.298 | 0.304 | 1.03 | 1.07 | 1.19 | 1.04 |
| NCI-H441 | 1.28 | 0.908 | 1.18 | 0.796 | 0.893 | 0.843 | 0.848 | 0.613 | 0.22 | 0.204 | 0.243 | 0.184 | 0.255 | 0.272 | 0.281 | 0.267 | 0.323 | 0.297 | 0.333 | 0.278 |
| LXF-289 | 0.963 | 0.908 | 1.02 | 0.9 | 0.838 | 0.719 | 0.811 | 0.674 | 0.671 | 0.595 | 0.638 | 0.579 | 0.898 | 0.832 | 0.894 | 0.831 | 0.707 | 0.693 | 0.828 | 0.51 |

From the supplement of paper PMC10307832
